Experimental findings from patent publication US11478460B2, “Diaryl substituted 6,5-fused ring compounds as C5aR inhibitors” (CHEMOCENTRYX, INC., priority 2017, dated 2022) are described below.

The assay addresses C5aR (Homo sapiens (Human), UniProt P21730). The experiment in a line: Chemotaxis assay using U937 cells (C5aR mediated migration). In kind it is cell-based. The following applies: read-out: Mig IC50. The protocol:
U937 cells are a monocytic cell line which express C5aR, and are available from ATCC (VA). These cells were cultured as a suspension in RPMI-1640 medium supplemented with 2 mM L-glutamine, 1.5 g/L sodium bicarbonate, 4.5 g/L glucose, 10 mM HEPES, 1 mM sodium pyruvate, and 10% FBS. Cells were grown under 5% CO2/95% air, 100% humidity at 37° C. and subcultured twice weekly at 1:6 (cells were cultured at a density range of 1×10^5 to 2×10^6 cells/mL) and harvested at 1×10^6 cells/mL. Prior to assay, cells are treated overnight with 0.5 mM of cyclic AMP (Sigma, OH) and washed once prior to use. cAMP treated U937 cells can be used in C5aR ligand binding and functional assays.
Optionally, compounds may be further assayed for their ability to inhibit chemotaxis in cells. Chemotaxis assays are performed using 5 μm pore polycarbonate, polyvinylpyrrolidone-coated filters in 96-well chemotaxis chambers (Neuroprobe; Gaithersburg, Md.) using chemotaxis buffer (Hank's balanced salt solution (HBSS) and 1% FBS). C5aR ligands (i.e., C5a, R&D Systems; Minneapolis, Minn.) are use to evaluate compound mediated inhibition of C5aR mediated migration. Other chemokines (i.e., SDF-1α; R&D Systems; Minneapolis, Minn.) are used as specificity controls. The lower chamber is loaded with 29 μl of chemokine (i.e., 0.03 nM C5a) and varying amounts of compound; the top chamber contains 100,000 U937 or neutrophil cells in 20 μl. The chambers are incubated 1.5 hours at 37° C., and the number of cells in the lower chamber quantified either by direct cell counts in five high powered fields per well or by the CyQuant assay (Molecular Probes), a fluorescent dye method that measures nucleic acid content and microscopic observation.
The compounds in Table 1, below, were prepared using the methods described above. Characterization data is provided for each compound listed. Activity is provided as follows for the chemotaxis assay using U937 cells as described herein (Example 12): +, 500 nM<IC50; ++, 50 nM<IC50≤500 nM; +++, 5 nM<IC50≤50 nM; and ++++, IC50≤5 nM.

SMILES strings stand for the structures. A value given as a limit tells only on which side of the number the result lay.

C5aR, sequence (P21730 whole entry): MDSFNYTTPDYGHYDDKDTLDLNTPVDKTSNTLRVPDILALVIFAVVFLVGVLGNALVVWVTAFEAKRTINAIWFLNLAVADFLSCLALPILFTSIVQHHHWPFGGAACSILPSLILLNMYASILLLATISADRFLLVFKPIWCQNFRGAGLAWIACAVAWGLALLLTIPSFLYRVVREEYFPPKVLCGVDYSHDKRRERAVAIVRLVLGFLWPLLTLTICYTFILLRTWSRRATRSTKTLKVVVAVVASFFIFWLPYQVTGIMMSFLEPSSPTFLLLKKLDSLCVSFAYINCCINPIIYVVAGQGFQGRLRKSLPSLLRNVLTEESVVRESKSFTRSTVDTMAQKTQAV

In the case of `Cc1cccc(C)c1-n1nc2c(c1-c1cc(F)c(NC(N)=O)cc1F)CN(c1ncc(C(F)(F)F)cn1)CC2` [Example 1.154], the IC50 (commonly the concentration needed to halve the response being measured) is no more than 5 nM.
`Cc1cccc(C)c1-n1nc2c(c1-c1cc(F)c(NC(N)=O)cc1F)CN(c1ccc(Cl)cc1F)CC2` [Example 1.107]: the IC50 is no more than 5 nM.
The result for `CCC(C)(C)N1CCc2nn(-c3c(C)cccc3OCC(C)C)c(-c3ccc(NC(N)=O)c(F)c3)c2C1` [Example 1.230] reads 5 to 50 nM.
For the compound `CCc1cccc(CC)c1-n1nc2c(c1-c1cc(F)c(N)cc1F)CN(Cc1ccc(C(F)(F)F)cc1C(F)(F)F)CC2` [Example 1.004], the IC50 lay within 5 to 50 nM.
On to `Cc1cccc(OCC(C)C)c1-n1nc2c(c1-c1ccc(NC(N)=O)cc1)CN(Cc1c(Cl)cccc1C(F)(F)F)CC2` [Example 1.362], for which the IC50 was no more than 5 nM.
As to `Cc1cccc(OCC(C)C)c1-n1nc2c(c1-c1ccc(NC(N)=O)cc1)CN(c1ccc(F)cc1C(F)(F)F)CC2` [Example 1.318], the IC50 was no more than 5 nM.
With `COc1cccc(C)c1-n1nc2c(c1-c1ccc(NC3CCCC3)cc1)CN(c1ccccc1C)CC2` [Example 1.490], the IC50 was greater than 500 nM.
`COc1cccc(C)c1-n1nc2c(c1-c1ccc(NC(N)=O)nc1)CN(c1ccccc1C(C)C)CC2` [Example 1.447]: the IC50 lay in the range of 50 to 500 nM.
In the case of `Cc1cccc(OCC(C)C)c1-n1nc2c(c1-c1ccc(NC(N)=O)cc1)CN(Cc1ccc(F)cc1F)CC2` [Example 1.316], the IC50 is no more than 5 nM.
For `CC(C)COc1ccccc1-n1nc2c(c1-c1cc(F)c(NC(N)=O)cc1F)CN(C(C)(C)c1ccccc1)CC2` [Example 1.199], the IC50 was no more than 5 nM.
For `CCc1cccc(CC)c1-n1nc2c(c1-c1cc(F)c(NC(N)=O)cc1F)CN(Cc1ccc(Cl)cc1C(F)(F)F)C(C)(C)C2` [Example 1.052], the IC50 is no more than 5 nM.
Next, `CCc1cccc(CC)c1-n1nc2c(c1-c1cc(F)c(NC(N)=O)cc1F)CN(Cc1cc(F)ccc1C(F)(F)F)CC2` [Example 1.028]: no more than 5 nM; `CCc1cccc(CC)c1-n1nc2c(c1-c1cc(F)c(NC(N)=O)cc1F)CN(Cc1cc(C(F)(F)F)ccc1F)CC2` [Example 1.039]: no more than 5 nM.
Consider `Cc1cccc(OCC(C)C)c1-n1nc2c(c1-c1ccc(N)cc1)CN(c1ccccc1C(C)(C)C)CC2` [Example 1.455], for which the 50% inhibitory concentration (IC50) is 5 to 50 nM.
The result for `Cc1cccc(C)c1CN1CCc2nn(-c3c(C)cccc3OCC(C)C)c(-c3ccc(NC(N)=O)cc3)c2C1` [Example 1.376] reads 5 to 50 nM; that for `Cc1cccc(OCC(C)C)c1-n1nc2c(c1-c1ccc(NC(N)=O)cc1)CN(Cc1ccccc1Cl)CC2` [Example 1.313], 5 to 50 nM.
Consider `Cc1cccc(CCC(C)C)c1-n1nc2c(c1-c1ccc(NC(N)=O)cc1)CN(C(=O)OC(C)(C)C)CC2` [Example 1.414], for which the IC50 lay in the range of 50 to 500 nM.
On to `Cc1ccccc1CN1CCc2nn(-c3c(C)cccc3OCC(C)C)c(-c3ccc(NC(N)=O)cc3)c2C1` [Example 1.371], for which the IC50 lay in the range of 5 to 50 nM.
In the case of `Cc1cccc(OCC(C)C)c1-n1nc2c(c1-c1ccc(NC(N)=O)cc1)CN(C1CCCCC1)CC2` [Example 1.406], the IC50 was 50 to 500 nM.
With `Cc1cccc(F)c1CN1CCc2nn(-c3c(C)cccc3OCC(C)C)c(-c3ccc(NC(N)=O)cc3)c2C1` [Example 1.360], the IC50 is no more than 5 nM.
Take `Cc1cnc(N2CCc3nn(-c4c(C)cccc4C)c(-c4cc(F)c(NC(N)=O)cc4F)c3C2)c(Cl)c1` [Example 1.115]: the IC50 was no more than 5 nM.
With `Cc1ccc(N2CCc3nn(-c4c(C)cccc4OCC(C)C)c(-c4ccc(NC(N)=O)cc4)c3C2)c(C(F)(F)F)c1` [Example 1.321], the IC50 was no more than 5 nM.
Regarding `Cc1cccc(OCC(C)C)c1-n1nc2c(c1-c1ccc(NC(N)=O)c(F)c1)CN(Cc1ccc(C(F)(F)F)cc1C(F)(F)F)CC2` [Example 1.277], the IC50 is no more than 5 nM.
For the compound `COc1cc(F)c(-c2c3c(nn2-c2c(C)cccc2C)CCN(c2ncc(Cl)cc2Cl)C3)cc1F` [Example 1.121], the half-inhibitory concentration (IC50) is greater than 500 nM.
Regarding `Cc1cccc(OCC(C)C)c1-n1nc2c(c1-c1ccc(N)cc1)CN(c1ccccc1C(C)C)CC2` [Example 1.480], the IC50 is 5 to 50 nM.
The result for `CCc1cccc(CC)c1-n1nc2c(c1-c1cc(F)c(NC(N)=O)cc1F)CN(Cc1ccc(C)cc1C)CC2` [Example 1.063] reads no more than 5 nM; that for `Cc1cccc(OCC(C)C)c1-n1nc2c(c1-c1ccc(NC(N)=O)cc1)CN(Cc1ccccc1)CC2` [Example 1.382], 5 to 50 nM; that for `Cc1cccc(OCC(C)C)c1-n1nc2c(c1-c1ccc(NC(N)=O)cc1F)CN(c1ncc(C(F)(F)F)cc1F)CC2` [Example 1.270], no more than 5 nM.
The result for `CCc1cccc(CC)c1-n1nc2c(c1-c1cc(F)c(NC(N)=O)cc1OC)CN(Cc1ccc(C(F)(F)F)cc1C(F)(F)F)CC2` [Example 1.042] reads no more than 5 nM.
Turning to `COc1cccc(C)c1-n1nc2c(c1-c1ccc(NC(C)C)cc1)CN(c1ccccc1C(C)C)CC2` [Example 1.485], the IC50 is 50 to 500 nM.
`Cc1cccc(OCC(C)C)c1-n1nc2c(c1-c1ccc(NC(N)=O)cc1)CN(C(C)c1cccc(C(F)(F)F)c1)CC2` (centres unmarked) [Example 1.314]: the IC50 was in the range of 5 to 50 nM.
The result for `Cc1cccc(OCC(C)C)c1-n1nc2c(c1-c1ccc(NC(N)=O)cc1)CN(C(=O)C1CCCC1)CC2` [Example 1.438] reads 50 to 500 nM; that for `CCc1cccc(CC)c1-n1nc2c(c1-c1ccc(NC(N)=O)c(F)c1)CN(C(C)CC(C)C)CC2` (centres unmarked) [Example 1.215], 5 to 50 nM; that for `Cc1cccc(CCC(C)C)c1-n1nc2c(c1-c1ccc(NC(N)=O)cc1)CN(CC(C)(C)C)CC2` [Example 1.336], 5 to 50 nM.
Regarding `Cc1cccc(OCC(C)C)c1-n1nc2c(c1-c1cc(F)c(NC(N)=O)cc1F)CN(c1ncccc1Cl)CC2` [Example 1.170], the IC50 was no more than 5 nM.
As to `Cc1cccc(OCC(C)C)c1-n1nc2c(c1-c1ccc(CO)cc1)CN(c1ccccc1C(C)(C)C)CC2` [Example 1.450], the IC50 lay in the range of 50 to 500 nM.
On to `Cc1ccc(C(C)(C)C)cc1N1CCc2nn(-c3c(C)cccc3OC(C)C)c(-c3ccc(NC(N)=O)cc3)c2C1` [Example 1.444], for which the half-inhibitory concentration (IC50) is no more than 5 nM.
Next, `Cc1cccc(C)c1-n1nc2c(c1-c1cc(F)c(NC(N)=O)cc1F)CN(c1ccc(Cl)cc1Cl)CC2` [Example 1.119]: no more than 5 nM.
Regarding `COc1cccc(C)c1-n1nc2c(c1-c1ccc(NC(N)=O)c(C)c1)CN(c1cc(C(C)(C)C)ccc1C)CC2` [Example 1.409], the IC50 lay in the range of 5 to 50 nM.
As to `Cc1cccc(OCC(C)C)c1-n1nc2c(c1-c1ccc(NC(N)=O)cc1)CN(Cc1ccc(C(F)(F)F)cc1Cl)CC2` [Example 1.315], the IC50 was no more than 5 nM.
In the case of `CCc1cccc(CC)c1-n1nc2c(c1-c1ccc(NC(N)=O)cc1)CN(Cc1cc(Cl)ccc1Cl)CC2` [Example 1.291], the IC50 lay in the range of 5 to 50 nM.
As for `CCc1cccc(CC)c1-n1nc2c(c1-c1cc(F)c(NC(N)=O)cc1F)CN(Cc1ccc(Cl)cc1Cl)C(C)(C)C2` [Example 1.024], the IC50 is no more than 5 nM.
`Cc1ccc(F)cc1N1CCc2nn(-c3c(C)cccc3OCC(C)C)c(-c3ccc(NC(N)=O)cc3)c2C1` [Example 1.423]: the IC50 lay in the range of 5 to 50 nM.
Regarding `CCc1cccc(CC)c1-n1nc2c(c1-c1cc(F)c(NC(N)=O)cc1F)CN(Cc1cc(C(F)(F)F)ccc1C)CC2` [Example 1.036], the IC50 is no more than 5 nM.
Turning to `CC(C)COc1ccccc1-n1nc2c(c1-c1cc(F)c(NC(N)=O)cc1F)CN(c1ncc(C(F)(F)F)cc1F)CC2` [Example 1.205], the IC50 was no more than 5 nM.
With `CC(=O)Nc1cc(F)c(-c2c3c(nn2-c2c(C)cccc2C)CCN(c2ncc(Cl)cc2Cl)C3)cc1F` [Example 1.126], the 50% inhibitory concentration (IC50) lay in the range of 50 to 500 nM.
Take `Cc1cccc(OCC(C)C)c1-n1nc2c(c1-c1ccc(NC(N)=O)cc1)CN(CC(C)(C)C)CC2` [Example 1.405]: the IC50 lay in the range of 5 to 50 nM.
Next, `CCc1cccc(CC)c1-n1nc2c(c1-c1cc(F)c(NC(N)=O)cc1F)CN(c1ncc(Cl)cc1Cl)CC2` [Example 1.201]: no more than 5 nM.
For the compound `Cc1cccc(OCC(C)C)c1-n1nc2c(c1-c1cc(F)c(NC(N)=O)cc1F)CN(C(c1ccccc1)C(F)(F)F)CC2` (centres unmarked) [Example 1.196], the IC50 was no more than 5 nM.
Next, `COc1cccc(F)c1-n1nc2c(c1-c1ccc(NC(N)=O)cc1)CN(c1cc(C(C)(C)C)ccc1C)CC2` [Example 1.451]: 50 to 500 nM; `CCOc1cccc(C)c1-n1nc2c(c1-c1ccc(N)cc1)CN(c1ccccc1C(C)C)CC2` [Example 1.479]: 50 to 500 nM; `Cc1cccc(OCC(C)C)c1-n1nc2c(c1-c1ccc(NC(N)=O)c(F)c1)CN(CC(C)C(F)(F)F)CC2` (centres unmarked) [Example 1.262]: no more than 5 nM.
Next, `Cc1cccc(OCC(C)C)c1-n1nc2c(c1-c1ccc(NC(N)=O)cc1)CN(CC(C)C)CC2` [Example 1.385]: 50 to 500 nM.
